Assay results from ChEMBL document CHEMBL1909046, “DrugMatrix in vitro pharmacology data”.

Key:
[1] = target: T1, C-X-C chemokine receptor type 1 (Homo sapiens, UniProt P25024); further: in other assays of this panel Not Active means under 50% inhibition at 10 µM
T1 sequence (P25024 whole entry): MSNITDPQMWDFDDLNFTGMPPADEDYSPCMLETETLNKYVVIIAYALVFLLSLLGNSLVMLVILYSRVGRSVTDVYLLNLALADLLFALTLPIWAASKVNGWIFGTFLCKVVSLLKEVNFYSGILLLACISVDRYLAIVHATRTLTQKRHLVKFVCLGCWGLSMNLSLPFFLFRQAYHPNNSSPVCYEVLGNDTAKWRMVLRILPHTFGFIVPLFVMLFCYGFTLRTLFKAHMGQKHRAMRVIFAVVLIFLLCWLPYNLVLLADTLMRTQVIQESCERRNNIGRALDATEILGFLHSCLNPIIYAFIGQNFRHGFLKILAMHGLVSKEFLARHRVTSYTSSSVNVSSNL

[2] = DRUGMATRIX: Calcium Channel Type L, Phenylalkylamine radioligand binding (ligand: [3H] (-)-Desmethoxyverapamil (D-888)); type: cell membranes, Rattus norvegicus, Wistar, Brain, Membrane; settings: Not Active = under 50% inhibition at 10 µM
[3] = DRUGMATRIX: Imidazoline I2, Central radioligand binding (ligand: [3H] Idazoxan); type: cell membranes, Rattus norvegicus, Wistar, Cerebral cortex, Membrane; settings: Not Active = under 50% inhibition at 10 µM
[4] = target: T2, Alpha-1B adrenergic receptor (Rattus norvegicus, UniProt P15823); assay: DRUGMATRIX: Alpha-1B adrenergic receptor radioligand binding (ligand: prazosin); type: cell membranes, Wistar, Liver, Membrane; settings: Not Active = under 50% inhibition at 10 µM
T2 sequence (P15823 whole entry): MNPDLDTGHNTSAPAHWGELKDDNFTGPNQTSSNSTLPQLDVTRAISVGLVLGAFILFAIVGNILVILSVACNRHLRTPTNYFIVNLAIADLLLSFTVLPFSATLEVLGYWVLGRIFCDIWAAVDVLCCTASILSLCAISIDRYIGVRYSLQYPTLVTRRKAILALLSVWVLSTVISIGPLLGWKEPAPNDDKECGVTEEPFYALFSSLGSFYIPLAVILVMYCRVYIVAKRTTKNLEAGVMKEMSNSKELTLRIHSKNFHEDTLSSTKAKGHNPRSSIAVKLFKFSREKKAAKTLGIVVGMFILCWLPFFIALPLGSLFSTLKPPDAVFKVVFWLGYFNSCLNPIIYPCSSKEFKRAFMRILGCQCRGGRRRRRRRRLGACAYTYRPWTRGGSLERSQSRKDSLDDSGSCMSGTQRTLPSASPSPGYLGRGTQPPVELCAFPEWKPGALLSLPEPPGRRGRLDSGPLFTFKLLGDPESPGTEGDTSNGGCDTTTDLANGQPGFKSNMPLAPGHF

[5] = DRUGMATRIX: Phorbol Ester radioligand binding (ligand: [3H] PDBu); type: cell membranes, Mus musculus, ICR, Brain, Membrane; settings: Not Active = under 50% inhibition at 10 µM
[6] = target: Beta-3 adrenergic receptor (Homo sapiens, UniProt P13945); assay: DRUGMATRIX: Adrenergic beta3 radioligand binding (ligand: [125I] Cyanopindolol); type: cell membranes, Membrane; settings: hek293; Not Active = under 50% inhibition at 10 µM
Cathepsin G = target: T3, Cathepsin G (Homo sapiens, UniProt P08311); type: tissue-based; settings: neutrophil;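 further: inhibition of Cathepsin G enzyme activity, tested on an AMC-conjugated peptide substrate; in other assays of this panel Not Active means under 50% inhibition at 10 µM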
T3 sequence (P08311 whole entry): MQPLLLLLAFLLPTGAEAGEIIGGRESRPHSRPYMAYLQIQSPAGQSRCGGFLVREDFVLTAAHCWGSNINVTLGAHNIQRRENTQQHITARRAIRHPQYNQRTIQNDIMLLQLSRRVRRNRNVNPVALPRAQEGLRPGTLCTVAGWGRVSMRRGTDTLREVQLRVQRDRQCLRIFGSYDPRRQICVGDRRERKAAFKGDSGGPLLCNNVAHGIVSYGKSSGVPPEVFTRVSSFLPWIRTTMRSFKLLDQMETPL

Nitric oxide synthase 1 = Nitric oxide synthase 1 (Rattus norvegicus, UniProt P29476); type: tissue-based, Cerebellum; further: in other assays of this panel Not Active means under 50% inhibition at 10 µM
[7] = DRUGMATRIX: Atrial Natriuretic Factor (ANF) radioligand binding (ligand: [125I] ANF (rat)); type: cell membranes, Cavia porcellus, Dunkin-Hartley, Adrenal gland, Membrane; settings: Not Active = under 50% inhibition at 10 µM

Chain of Nitric oxide synthase 1 (P29476 whole entry): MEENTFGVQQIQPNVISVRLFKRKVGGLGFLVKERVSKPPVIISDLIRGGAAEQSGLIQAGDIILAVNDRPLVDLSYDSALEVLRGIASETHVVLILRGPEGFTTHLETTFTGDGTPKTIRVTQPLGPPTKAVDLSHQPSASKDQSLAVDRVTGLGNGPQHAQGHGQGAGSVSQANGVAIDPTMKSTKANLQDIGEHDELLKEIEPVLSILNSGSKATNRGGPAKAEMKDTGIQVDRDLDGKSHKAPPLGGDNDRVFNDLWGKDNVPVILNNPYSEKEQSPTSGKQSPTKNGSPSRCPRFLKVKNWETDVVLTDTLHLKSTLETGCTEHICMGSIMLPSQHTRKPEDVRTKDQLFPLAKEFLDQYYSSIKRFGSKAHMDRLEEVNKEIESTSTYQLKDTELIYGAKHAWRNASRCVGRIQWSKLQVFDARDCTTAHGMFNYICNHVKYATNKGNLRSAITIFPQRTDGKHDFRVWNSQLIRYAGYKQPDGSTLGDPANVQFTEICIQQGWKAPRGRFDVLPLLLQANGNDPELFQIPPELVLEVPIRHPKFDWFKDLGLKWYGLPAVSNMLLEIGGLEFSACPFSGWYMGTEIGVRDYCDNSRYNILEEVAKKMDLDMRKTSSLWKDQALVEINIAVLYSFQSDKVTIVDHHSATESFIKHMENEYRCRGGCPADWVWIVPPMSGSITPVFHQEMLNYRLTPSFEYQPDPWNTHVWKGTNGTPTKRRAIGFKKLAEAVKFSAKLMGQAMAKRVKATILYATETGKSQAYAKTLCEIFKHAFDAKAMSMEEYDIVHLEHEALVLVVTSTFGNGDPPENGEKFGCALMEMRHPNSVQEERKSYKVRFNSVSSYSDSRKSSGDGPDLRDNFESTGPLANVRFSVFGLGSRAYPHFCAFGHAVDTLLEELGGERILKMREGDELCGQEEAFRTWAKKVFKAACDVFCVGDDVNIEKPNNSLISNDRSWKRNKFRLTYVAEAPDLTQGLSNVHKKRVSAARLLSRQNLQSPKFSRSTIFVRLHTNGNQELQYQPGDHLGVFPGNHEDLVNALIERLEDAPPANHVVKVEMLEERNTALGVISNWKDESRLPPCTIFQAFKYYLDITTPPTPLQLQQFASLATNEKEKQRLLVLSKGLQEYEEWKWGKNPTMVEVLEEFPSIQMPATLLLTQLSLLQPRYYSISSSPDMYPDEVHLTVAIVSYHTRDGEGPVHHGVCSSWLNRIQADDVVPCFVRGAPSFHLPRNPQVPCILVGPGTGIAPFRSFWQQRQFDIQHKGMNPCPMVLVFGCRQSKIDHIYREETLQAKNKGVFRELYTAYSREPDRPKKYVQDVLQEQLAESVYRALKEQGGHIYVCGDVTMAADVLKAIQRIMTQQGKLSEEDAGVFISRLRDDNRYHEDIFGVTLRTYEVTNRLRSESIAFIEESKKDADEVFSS
Chain of Beta-3 adrenergic receptor (P13945 whole entry): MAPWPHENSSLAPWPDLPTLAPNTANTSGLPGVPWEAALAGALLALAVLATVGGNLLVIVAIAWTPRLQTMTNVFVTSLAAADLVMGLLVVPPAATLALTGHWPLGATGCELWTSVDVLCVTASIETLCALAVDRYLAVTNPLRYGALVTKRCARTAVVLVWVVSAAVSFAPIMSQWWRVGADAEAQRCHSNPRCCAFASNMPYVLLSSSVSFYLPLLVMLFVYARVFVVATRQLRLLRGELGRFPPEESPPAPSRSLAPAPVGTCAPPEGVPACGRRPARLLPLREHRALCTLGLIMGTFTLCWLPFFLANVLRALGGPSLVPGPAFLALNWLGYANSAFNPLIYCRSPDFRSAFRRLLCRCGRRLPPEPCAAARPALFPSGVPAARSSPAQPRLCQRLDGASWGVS

Cn1c(=O)c2c(ncn2CC2OCCO2)n(C)c1=O [DOXOFYLLINE]
Not Active: IC50 [1] | IC50 [2] | Ki [2] | IC50 [3] | Ki [3] | IC50 [4] | IC50 [5] | Ki [5] | IC50 [6] | IC50 (Cathepsin G) | IC50 (Nitric oxide synthase 1) | IC50 [7] | Ki [7]

COc1cccc2c1C(=O)c1c(O)c3c(c(O)c1C2=O)C[C@@](O)(C(=O)CO)C[C@@H]3O[C@H]1C[C@H](N)[C@H](O)[C@H](C)O1 [DOXORUBICIN]
Not Active: IC50 [1] | IC50 [2] | Ki [2] | IC50 [3] | Ki [3] | IC50 [4] | IC50 [5] | Ki [5] | IC50 [6] | IC50 (Cathepsin G) | IC50 (Nitric oxide synthase 1) | IC50 [7] | Ki [7]

COc1cccc2c1C(=O)c1c(O)c3c(c(O)c1C2=O)C[C@@](O)(C(=O)CO)C[C@@H]3O[C@H]1C[C@H](N)[C@@H](O)[C@H](C)O1 [EPIRUBICIN]
Not Active: IC50 [1] | IC50 [2] | Ki [2] | IC50 [3] | Ki [3] | IC50 [4] | IC50 [5] | Ki [5] | IC50 [6] | IC50 (Cathepsin G) | IC50 (Nitric oxide synthase 1) | IC50 [7] | Ki [7]

C[C@]12CC[C@@H]3c4ccc(OC(=O)c5ccccc5)cc4CC[C@H]3[C@@H]1CC[C@@H]2O [ESTRADIOL BENZOATE]
Not Active: IC50 [1] | IC50 [2] | Ki [2] | IC50 [3] | Ki [3] | IC50 [4] | IC50 [5] | Ki [5] | IC50 [6] | IC50 (Cathepsin G) | IC50 (Nitric oxide synthase 1) | IC50 [7] | Ki [7]

C[C@]12CC[C@@H]3c4ccc(O)cc4CC[C@H]3[C@@H]1CC[C@@H]2O [ESTRADIOL]
Not Active: IC50 [1] | IC50 [2] | Ki [2] | IC50 [3] | Ki [3] | IC50 [4] | IC50 [5] | Ki [5] | IC50 [6] | IC50 (Cathepsin G) | IC50 (Nitric oxide synthase 1) | IC50 [7] | Ki [7]

CC[C@@H](CO)NCCN[C@@H](CC)CO [ETHAMBUTOL]
Not Active: IC50 [1] | IC50 [2] | Ki [2] | IC50 [3] | Ki [3] | IC50 [4] | IC50 [5] | Ki [5] | IC50 [6] | IC50 (Cathepsin G) | IC50 (Nitric oxide synthase 1) | IC50 [7] | Ki [7]

CC1(C)O[C@@H]2C[C@H]3[C@@H]4C[C@H](F)C5=CC(=O)C=C[C@]5(C)[C@H]4[C@@H](O)C[C@]3(C)[C@]2(C(=O)CO)O1 [FLUNISOLIDE]
Not Active: IC50 [1] | IC50 [2] | Ki [2] | IC50 [3] | Ki [3] | IC50 [4] | IC50 [5] | Ki [5] | IC50 [6] | IC50 (Cathepsin G) | IC50 (Nitric oxide synthase 1) | IC50 [7] | Ki [7]

CC1(C)O[C@@H]2C[C@H]3[C@@H]4C[C@H](F)C5=CC(=O)C=C[C@]5(C)[C@@]4(F)[C@@H](O)C[C@]3(C)[C@]2(C(=O)CO)O1 [FLUOCINOLONE ACETONIDE]
Not Active: IC50 [1] | IC50 [2] | Ki [2] | IC50 [3] | Ki [3] | IC50 [4] | IC50 [5] | Ki [5] | IC50 [6] | IC50 (Cathepsin G) | IC50 (Nitric oxide synthase 1) | IC50 [7] | Ki [7]

CC1(C)O[C@@H]2C[C@H]3[C@@H]4C[C@H](F)C5=CC(=O)CC[C@]5(C)[C@H]4[C@@H](O)C[C@]3(C)[C@]2(C(=O)CO)O1 [FLURANDRENOLIDE]
Not Active: IC50 [1] | IC50 [2] | Ki [2] | IC50 [3] | Ki [3] | IC50 [4] | IC50 [5] | Ki [5] | IC50 [6] | IC50 (Cathepsin G) | IC50 (Nitric oxide synthase 1) | IC50 [7] | Ki [7]

Cc1ccc(S(=O)(=O)NC(=O)NN2CC3CCCC3C2)cc1 (stereo unspecified) [GLICLAZIDE]
Not Active: IC50 [1] | IC50 [2] | Ki [2] | IC50 [3] | Ki [3] | IC50 [4] | IC50 [5] | Ki [5] | IC50 [6] | IC50 (Cathepsin G) | IC50 (Nitric oxide synthase 1) | IC50 [7] | Ki [7]

NC(=O)NO [HYDROXYUREA]
Not Active: IC50 [1] | IC50 [2] | Ki [2] | IC50 [3] | Ki [3] | IC50 [4] | IC50 [5] | Ki [5] | IC50 [6] | IC50 (Cathepsin G) | IC50 (Nitric oxide synthase 1) | IC50 [7] | Ki [7]

CC(C)Cc1ccc(C(C)C(=O)O)cc1 (stereo unspecified) [IBUPROFEN]
Not Active: IC50 [1] | IC50 [2] | Ki [2] | IC50 [3] | Ki [3] | IC50 [4] | IC50 [5] | Ki [5] | IC50 [6] | IC50 (Cathepsin G) | IC50 (Nitric oxide synthase 1) | IC50 [7] | Ki [7]
